Reference: publication PMC4501059, “Responding to the challenge of untreatable gonorrhea: ETX0914, a first-in-class agent with a distinct mechanism-of-action against bacterial Type II topoisomerases” (Scientific Reports, 2015)
≈ marks a conversion by molar mass, not a printed value. Where “and” joins values, the source holds several entries; their conditions need not be identical. Identical values can stand only once. Like-named read-outs stand apart in the source and are kept apart here.

Tests used:
[1] = system: S. aureus AP607004 (MRQR); experiment: MIC (CLSI broth microdilution); format: cell-based
S. pneumoniae ATCC49619 = experiment: MIC (CLSI broth microdilution); format: cell-based
[2] = system: S. pneumoniae ARC2205 (ERQR); experiment: MIC (CLSI broth microdilution); format: cell-based
N. gonorrhoeae ATCC49226 = experiment: MIC (CLSI agar dilution); format: cell-based
[3] = system: N. gonorrhoeae ARC4676 (QR); format: cell-based
mouse lymphoma cells = experiment: in vitro mouse micronucleus aberration assay (MMA); format: cell-based; settings: in vitro
Experimental: In vitro toxicology. Experiments for assessing micronuclei in mouse lymphoma cells^19 myeloid cytotoxicity^20 and erythroid cytotoxicity^21 were performed as described previously.

[4] = Single dose pharmacokinetics, monkey; format: in vivo; settings: plasma, Cynomologus monkey (male)
Experimental: AZD0914 was analyzed in mouse, rat, dog, monkey plasma using a qualified method which was later validated for human plasma analysis. The validated human method is described below and is representative of the approach taken in other species. AZD0914 was determined in human plasma prepared with K2EDTA as an anticoagulant. AZD0914 and an internal standard (^13C2, ^15N2 AZD0914) were extracted from plasma with tert- butyl methyl ether. After evaporating to dryness under a stream of nitrogen, the residue was reconstituted and quantitated by reverse phase HPLC-MS/MS against a standard curve from 1.00 to 5000 ng/ml. Separation was achieved using a gradient which went from 55% to 85% methanol:acetonitrile (1:1) containing 0.2% formic acid as mobile phase B and 0.2% formic acid in water as mobile phase A at a flow rate of 0.60 ml/min through a Phenomonex Gemini C18 column (50 x 2.0 mm column, […]) heated using a Shimadzu CTO-20AC set to 40 °C. AZD0914 was detected in multiple reaction monitoring (MRM) mode by positive ion electrospray ionization using a Sciex API5500 (Toronto, Canada) mass spectrometer. The ion spray voltage was set to 5500 V and turboionspray temperature was 650 °C. AZD0914 was quantitated using the MRM transition 488.2 → 348.2 using a collision energy of 29 eV. The internal standard, (^13C2, ^15N2 AZD0914), was monitored using identical conditions except for the MRM transition of 492.2 → 348.2.

[5] = Quantitative whole-body autoradiography, tissue distribution of radioactivity; format: in vivo, male pigmented Lister Hood rat; settings: rat plasma after iv infusion of 14C label
Experimental: Quantitative whole-body autoradiography. The distribution of radioactivity in male, pigmented Lister Hood rat tissues was obtained after a single intravenous infusion over 15 minutes of ^14C-AZD0914 at 25 mg/kg (51 μmol/kg, 5 MBq/kg) using quantitative whole-body autoradiography with phosphor-imaging technology. The potential of this compound and/or its metabolites to bind to melanin-containing tissues and/or to potentially bind covalently to tissues was also evaluated. The rats were sacrificed at 5 minutes, 1 hour, 4 hours, 24 hours, 48 hours, 7 days and 21 days after the end of infusion with enflurane (Efrane®, Abbott Laboratories, USA), and frozen in acetone, cooled to -70 °C with solid CO2. The 7- and 21- day animals could not be quantified as no trace of radioactivity was observed. After removal of limbs and tail, the carcass was embedded, with left lateral side uppermost, in a 2.5% (w/v) aqueous solution of caramellosum natricum and frozen for at least 10 minutes. The animal blocks were stored at -20 °C until sectioning. Sagittal whole-body sections (30 μm) were obtained to include organs and tissues of interest. At sectioning each block was mounted in a Leica CM3600 Cryomacrotome (Leica Microsystems GmbH, Germany) maintained at approximately -20 °C. All sections were dried at -20 °C for at least 1 day prior to exposure on phosphor-imaging plates. Together with two sets of calibration standards, the sections were placed on phosphor-imaging plates, which had been pre-covered with a thin plastic film. The imaging plates were exposed for 1 to 3 days at +4 to +12 °C, enclosed in light tight cassettes in a lead shielding box to protect from environmental radiation. Following exposure, the imaging plates were scanned at a pixel size of 50 μm using FLA-7000 (FujiFilm Sverige AB, Sweden). The tissues and organs of interest were quantified using AIDA 3.5 (Raytest, Germany). The quantification limit was defined as twice the background value of the imaging plate and varied between the plates from 0.23 to 0.33 nmol/g. The various tissues and organs were identified either on the autoradiograms or on the corresponding tissue sections.

USA300 NRS384 = experiment: MIC (modal, CLSI broth microdilution); format: cell-based, S. aureus; settings: Staphylococcus aureus, read-out: Modal MIC
S. aureus DNA gyrase = S. aureus DNA gyrase (Staphylococcus aureus, UniProt P0A0K8+P20831); settings: free Mg2+ 0.06 μM to 8 mM
Sequence of S. aureus DNA gyrase (P0A0K8 whole entry): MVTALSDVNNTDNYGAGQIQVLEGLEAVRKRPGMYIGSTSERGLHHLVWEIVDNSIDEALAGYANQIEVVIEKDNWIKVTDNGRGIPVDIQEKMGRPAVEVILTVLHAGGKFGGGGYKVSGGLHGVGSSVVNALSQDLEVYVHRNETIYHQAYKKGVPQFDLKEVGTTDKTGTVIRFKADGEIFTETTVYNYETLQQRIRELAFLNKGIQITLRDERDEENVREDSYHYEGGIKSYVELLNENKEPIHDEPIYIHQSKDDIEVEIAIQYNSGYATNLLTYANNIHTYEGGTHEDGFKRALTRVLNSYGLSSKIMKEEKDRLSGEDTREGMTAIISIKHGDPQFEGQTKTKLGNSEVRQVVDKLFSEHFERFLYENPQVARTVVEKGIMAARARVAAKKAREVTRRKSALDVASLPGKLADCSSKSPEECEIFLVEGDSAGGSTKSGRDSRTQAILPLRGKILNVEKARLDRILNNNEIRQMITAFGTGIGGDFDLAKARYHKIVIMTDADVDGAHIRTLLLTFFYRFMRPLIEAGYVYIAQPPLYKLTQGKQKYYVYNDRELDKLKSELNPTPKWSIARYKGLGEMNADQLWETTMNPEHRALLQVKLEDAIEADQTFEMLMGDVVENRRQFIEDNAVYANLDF
Sequence of S. aureus DNA gyrase (P20831 whole entry): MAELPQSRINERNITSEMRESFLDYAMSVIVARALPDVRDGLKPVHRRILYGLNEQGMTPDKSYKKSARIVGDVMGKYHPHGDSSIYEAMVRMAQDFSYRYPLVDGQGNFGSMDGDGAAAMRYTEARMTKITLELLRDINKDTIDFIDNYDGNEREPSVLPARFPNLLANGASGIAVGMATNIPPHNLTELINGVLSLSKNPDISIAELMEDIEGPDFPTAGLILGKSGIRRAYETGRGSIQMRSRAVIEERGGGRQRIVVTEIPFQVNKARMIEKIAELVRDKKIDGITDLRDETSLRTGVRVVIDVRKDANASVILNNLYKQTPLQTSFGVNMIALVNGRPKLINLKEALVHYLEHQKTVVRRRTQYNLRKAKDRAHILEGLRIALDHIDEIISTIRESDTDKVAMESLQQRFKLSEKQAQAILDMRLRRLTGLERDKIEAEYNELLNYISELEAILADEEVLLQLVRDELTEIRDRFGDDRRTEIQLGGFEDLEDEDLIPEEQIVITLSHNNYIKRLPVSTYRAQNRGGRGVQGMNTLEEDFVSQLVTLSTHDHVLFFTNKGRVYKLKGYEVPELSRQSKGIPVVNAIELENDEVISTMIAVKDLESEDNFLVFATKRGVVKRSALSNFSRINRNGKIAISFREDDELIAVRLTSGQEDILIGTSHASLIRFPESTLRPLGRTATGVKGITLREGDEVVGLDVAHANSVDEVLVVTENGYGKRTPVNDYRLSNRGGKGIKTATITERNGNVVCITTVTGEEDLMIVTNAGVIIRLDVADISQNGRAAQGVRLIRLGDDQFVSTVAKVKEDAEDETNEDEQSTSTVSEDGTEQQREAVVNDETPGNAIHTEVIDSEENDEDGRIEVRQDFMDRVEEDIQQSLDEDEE
Experimental: Reactions were quenched by adding 3 μl of 2% SDS and 1 mg/ml proteinase K (30 min at 37 °C). DNA loading dye (4 μl) was added and DNA products were quantified by gel electrophoresis. Samples (25 μl) were loaded into wells of 1% agarose gels buffered with 40 mM Tris, 20 mM acetic acid, and 1 mM EDTA at pH 8.4 and run for 18 to 20 hours at 30V, or 3 hours at 60V including 1 µg/ml ethidium bromide in gel running buffer. DNA bands from gel electrophoresis were visualized by staining with ethidium bromide (5 µg/ml in TAE) after electrophoresis. DNA was quantified from digital images acquired during UV transillumination using AlphaEase software (Genetic Technologies). Background from control wells without inhibitor was subtracted.

[6] = system: Coagulase-negative Staphylococci; parameters: method as in ref 2 (supplement); settings: 1923 tested; ref 2 (supplement); cited from earlier work
Moraxella catarrhalis = system: Moraxella catarrhalis; parameters: method as in ref 2 (supplement); settings: 145 tested; ref 2 (supplement); cited from earlier work
[7] = 28 day oral toxicology study, dog; settings: for Salient Pathology Findings: 1 month dog (po)
[8] = Human plasma protein binding (PPB); settings: plasma
N. gonorrhoeae = experiment: clinical PK/PD magnitude, gonococcal infection
[9] = comparative haematology analysis in the rat, oral dosing; settings: for AUC: Han Wistar, in vivo, po; for AUC / haematology versus vehicle control: rat; for haematology versus vehicle control: 28 d
[10] = both, beagle, dog, plasma, po, 100 mg/kg/day
[11] = both, beagle, dog, plasma, po, 200 mg/kg/day
[12] = both, beagle, dog, plasma, po, 500 mg/kg/day

Question: For `C[C@@H]1CN2c3c(cc4c(N5C(=O)OC[C@@H]5C)noc4c3F)CC3(C(=O)NC(=O)NC3=O)[C@H]2[C@H](C)O1` [ETX0914], which “MIC: S. aureus AP607004 (MRQR)” value [1] is on record?
Answer: Its value is 0.5 µg/mL (≈ 1.03 µM).

Question: What about the “MIC: S. pneumoniae ATCC49619” value (S. pneumoniae ATCC49619) of the same compound?
Answer: The value was 0.125 µg/mL (≈ 0.256 µM).

Question: And the “MIC: S. pneumoniae ARC2205 (ERQR)” value [2]?
Answer: Its value is 0.125 µg/mL (≈ 0.256 µM).

Question: What about the “MIC: N. gonorrhoeae ATCC49226” value (N. gonorrhoeae ATCC49226) of the same compound?
Answer: The value was 0.125 µg/mL (≈ 0.256 µM).

Question: And the “MIC: N. gonorrhoeae ARC4676 (QR)” value [3]?
Answer: The value was 0.125 µg/mL (≈ 0.256 µM).

Question: What about the “Micronucleus NOEL” value (mouse lymphoma cells) of the same compound?
Answer: Its value is over 400 µM.

Question: And the clearance ([4]; IV 2.5 mg/kg, read-out: Clp (IV))?
Answer: Its clearance is 12 mL/min/kg.

Question: And the half-life ([4]; IV 2.5 mg/kg, read-out: T1/2 (IV) (converted))?
Answer: Its half-life is 1.6 h.

Question: And the Vd ([4]; IV 2.5 mg/kg, read-out: Vss (IV))?
Answer: Its Vd is 1.3 L/kg.

Question: And the bioavailability ([4]; IV 2.5 / PO 5 mg/kg)?
Answer: Its bioavailability is 58%.

Question: What about the Cmax ([4]; PO 5 mg/kg) of the same compound?
Answer: Its Cmax is 6.5 µM.

Question: What about the half-life ([4]; PO 5 mg/kg, read-out: T1/2 (PO) (converted)) of the same compound?
Answer: The half-life was 1.6 h.

Question: And the “share of circulating radioactivity in plasma accounted for by parent” value [5]?
Answer: Its value is ~ 90%.

Question: And the MIC (USA300 NRS384)?
Answer: Its MIC is 0.25 µg/mL (≈ 0.513 µM).

Question: And the “re-ligation of inhibitor-induced cleaved DNA on removal of Mg2+” value (S. aureus DNA gyrase)?
Answer: Its value is “re-ligation remained blocked”.

Question: What about the “re-ligation of inhibitor-induced cleaved DNA on removal of Mg2+” value (S. aureus DNA gyrase; listed as AZD0914) of the same compound?
Answer: The value was “No ligation is observed”.

Question: And the MIC90 [6]?
Answer: Its MIC90 is 0.25^2 µg/ml.

Question: And the “MIC Range” value [6]?
Answer: Its value is 0.015 to 2.0 µg/mL.

Question: And the MIC90 (Moraxella catarrhalis)?
Answer: The MIC90 was 0.25^2 µg/ml.

Question: And the “MIC Range” value (Moraxella catarrhalis)?
Answer: Its value is 0.015 to 0.5 µg/mL.

Question: What about the “Salient Pathology Findings” value ([7]; 200 mg/kg/day) of the same compound?
Answer: Its value is “Testes tubular degeneration partially reversible 3 months post dosing”.

Question: And the “Salient Pathology Findings” value ([7]; 500 mg/kg/day)?
Answer: The value was “As above plus: Epididymis cellular debris Caecum/illium/rectum necrosis”.

Question: And the NOAEL at 28 days ([7]; both, beagle, dog, in vivo, po)?
Answer: Its NOAEL at 28 days is 100 mg/kg and 100 mg/kg/day.

Question: And the Cmax ([7]; both, beagle, dog, in vivo, po, 100 mg/kg)?
Answer: The Cmax was 85 µg/mL.

Question: What about the AUC [7, 10] of the same compound?
Answer: Its AUC is 870 ± 240 µg·h/mL.

Question: What about the Cmax [7, 10] of the same compound?
Answer: Its Cmax is 90 ± 22 µg/mL.

Question: What about the AUC [7, 11] of the same compound?
Answer: Its AUC is 2160 ± 460 µg·h/mL.

Question: What about the Cmax [7, 11] of the same compound?
Answer: Its Cmax is 210 ± 18 µg/mL.

Question: And the AUC [7, 12]?
Answer: Its AUC is 2780 ± 1140 µg·h/mL.

Question: What about the Cmax [7, 12] of the same compound?
Answer: The Cmax was 220 ± 94 µg/mL.

Question: What about the “haematology or platelet count at the NOAEL” value ([7]; dog) of the same compound?
Answer: Its value is “no significant changes in haematology or platelet count”.

Question: What about the “finding at highest dose tested” value ([7]; dog, 500 mg/kg/day) of the same compound?
Answer: Its value is “tachycardia was observed”.

Question: And the tolerated dose ([7]; dog, oral gavage, 28 days)?
Answer: Its tolerated dose is 500 mg/kg/day.

Question: And the fraction unbound [8]?
Answer: The fraction unbound was 0.17.

Question: And the “predicted efficacious mean AUC in humans” value (N. gonorrhoeae)?
Answer: The value was 49 µg·h/mL.

Question: What about the AUC ([9]; 200 mg/kg) of the same compound?
Answer: The AUC was 1100 ± 130 µM·h.

Question: What about the AUC ([9]; 500 mg/kg) of the same compound?
Answer: Its AUC is 2460 ± 470 µM·h.

Question: And the AUC ([9]; 1000 mg/kg)?
Answer: Its AUC is 3820 ± 650 µM·h.

Question: What about the platelet count ([9]; data not shown) of the same compound?
Answer: The platelet count was “no significant changes in platelet count”.

Question: What about the “haematology versus vehicle control” value ([9]; 2 lower doses (200, 500 mg/kg)) of the same compound?
Answer: Its value is “within statistical equivalence of the vehicle control”.

Question: And the “haematology versus vehicle control” value ([9]; highest dose (1000 mg/kg))?
Answer: Its value is “statistical elevation in reticulocytes, lymphocytes and white blood cells”.
